Measurements from ChEMBL document CHEMBL1149917, “Peptidomimetic growth hormone secretagogues: synthesis and biological activities of analogs varied at the indole nucleus of the prototypical spiropiperidine L-162,752” (Bioorg Med Chem Lett, 1996).

Organism: Rattus norvegicus
Test: Compound was tested for intrinsic growth hormone(GH) secretory potency in the rat pituitary cell assay
Assay type: functional
Conditions: Pituitary gland cell

SMILES	EC50 [nM]
CC(C)(N)C(=O)N[C@H](Cc1ccc2ccccc2c1)C(=O)N1CCC2(CCc3ccccc32)CC1	900
CC(C)(N)C(=O)N[C@H](CSCc1ccccc1)C(=O)N1CCC2(CCc3ccccc32)CC1	65
CC(C)(N)C(=O)N[C@H](Cc1cccc2ccccc12)C(=O)N1CCC2(CCc3ccccc32)CC1	1100
CC(C)(CC(=O)N[C@H](CCc1ccccc1)C(=O)N1CCC2(CCc3ccccc32)CC1)NC[C@H](O)CO	170
C[C@@H](O)CNC(C)(C)CC(=O)N[C@H](CCc1ccccc1)C(=O)N1CCC2(CCc3ccccc32)CC1	200
CC(C)(N)CC(=O)N[C@H](COCc1ccccc1)C(=O)N1CCC2(CCc3ccccc32)CC1	> 1000
CC(C)(N)CC(=O)N[C@H](CCc1ccccc1)C(=O)N1CCC2(CCc3ccccc32)CC1	> 1000
C[C@@H](O)CNC(C)(C)CC(=O)N[C@H](COCc1ccccc1)C(=O)N1CCC2(CCc3ccccc32)CC1	240
CC(C)(N)C(=O)N[C@H](Cc1csc2ccccc12)C(=O)N1CCC2(CCc3ccccc32)CC1	490
CC(C)(N)C(=O)N[C@H](Cc1ccccc1)C(=O)N1CCC2(CCc3ccccc32)CC1	250
